Results from patent US11192967B1, “Thermosetting polyimides derived from resveratrol” (The United States of America, as represented by the …, priority 2017, dated 2021).
Read-outs that look alike come from different tables or passages of the source.

Tests used:
Mutagenicity (Ames test) = format: cell-based
Experimental: (§1) Toxicity Testing. In vitro toxicity tests were conducted for compounds 1-3.

Aquatic toxicity = details: for Aquatic toxicity (in words): 1 and 2 compared to MDA
Experimental: as §1

LD50 (toxicity testing) = details: listed among in vitro toxicity test results
In vitro cytotoxicity = format: cell-based; details: concentration at which cytotoxicity was observed; solubility limit 10 μg/mL for 3
Experimental: as §1

Compound | Mutagenicity (Ames test) (Mutagenicity (Ames test)) | Aquatic Toxicity (Aquatic toxicity) [mg/L] | LD50 (LD50 (toxicity testing)) [mg/kg] | Cytotoxicity (In vitro cytotoxicity) | Aquatic toxicity (in words) (Aquatic toxicity) | LD50 (LD50 (toxicity testing); read-out: LD50) [mg/kg] | Mutagenicity (Ames test) (Mutagenicity (Ames test); listed as Compound 3)
Nc1ccc(Cc2ccc(N)cc2)cc1 [MDA, Methylene dianiline, reference compound] | Mutagenic | 14.30 | 944 | – | – | – | –
Nc1ccc(/C=C/c2cc(N)cc(N)c2)cc1 [compound 1, (E)-5-(4-aminostyryl)benzene-1,3-diamine] | Mutagenic | 1153 | – | >/=3.2 μg/mL | substantially reduced aquatic toxicity compared to MDA | 301 | –
Nc1ccc(CCc2cc(N)cc(N)c2)cc1 [compound 2] | Mutagenic | 52.7 | – | >/=3.2 μg/mL | substantially reduced aquatic toxicity compared to MDA | 820 | –
Nc1ccc(Oc2ccc(CCc3cc(Oc4ccc(N)cc4)cc(Oc4ccc(N)cc4)c3)cc2)cc1 [compound 3] | Not mutagenic | >2000 | – | None observed | remarkably low aquatic toxicity | 568 | not mutagenic
